Test results reported in patent US7554012B2, “Plants and plant cells exhibiting resistance to AMPA, and methods for making the same” (priority 1998, dated 2009).
Like-named read-outs stand apart in the source and are kept apart here.

Tests used:
[1] = molecular target: T1, purified PhnO protein (Escherichia coli, UniProt P16691, P2A); assay: AMPA transacylase acyl-CoA acyl donor specificity, HPLC; type: biochemical, E. coli; details: for [^14C]-AMPA % Conversion: 5 minutes 30° C.; for % Activity: 1 mM acetyl-CoA = 100% reference
T1 construct: made in house; host or cells: E. coli JM101 carrying pMON15032 (recA promoter, nalidixic acid induction)
Description: PhnO was purified from a one liter Luria Bertani broth culture of E. coli JM101 expressing a recombinant phnO gene from pMON15032 after nalidixic acid induction for three hours at 37° C. Cells were harvested by centrifugation and resuspended in 40 ml cold Tris buffer (0.1 M Tris-HCl pH 8) and placed on ice. The cell suspension was brought to 1 mM DTT and 0.5 mM PMSF. The suspension was lysed by 2 passages through a prechilled French pressure cell at 1,100 psi, centrifuged at 12,000 g (10,000 rpm in an Sorvall SA600 rotor) for 40 min at 4° C., then placed on ice. The cleared supernatants were poured into fresh 15 ml polypropylene tubes. The samples were split again into two equal portions and maintained at −80° C. until used further for purification of PhnO protein. 20 microliters of the soluble fraction was assayed for enzyme activity using the HPLC method described above in Example 2, except after terminating the assay with acid addition, the sample was stored at −80° C. A Sephacryl S200 column was prepared according to the manufacturers' instructions and equilibrated with a solution containing 20 mM Tris pH 8.0 and 0.5 mM MgCl2. The entire total soluble extract was layered over the top of the column bed after thawing on ice. Forty 9 ml fractions were collected from the column eluate, and thirty microliters of each fraction was analyzed by western blot using anti-PhnO antiserum after resolution on a 15% SDS-PAGE gel. Also, thirty microliters of each fraction was analyzed for AMPA acyl transferase activity using the method described in Example 2. […] These were represented by fractions 7 through 19 in this example, and were combined into a 100 ml volume, distributed into […] each containing 10 ml volumes, and stored at −80° C. for further use.
Anion exchange chromatography was used to determine the elution pattern of PhnO away from other contaminating proteins that co-elute during the Sephacryl S200 fractionation. One tube from the combined PhnO positive fractions was thawed on ice and injected into a 5/5 Mono-Q column pre-equilibrated with buffers A (one liter of 20 mM Tris-HCl pH 8.0 Mili-Q distilled deionized water) and B (one liter of 20 mM Tris-HCl pH 8.0, 1 M NaCl). The sample containing PhnO active protein was injected into the column and one milliliter fractions were collected. The column was washed for five minutes with a flow rate of 1.8 ml per minute Buffer A after loading the PhnO containing sample. At five minutes, Buffer B was added to the flow volume at 0.5 ml per minute for four minutes. Buffer B was ramped up to 22% of the flow volume at 10 minutes, 30% at 12 minutes, 36% at 13 minutes, 41% at 14 minutes, 46% at 15 minutes, 74% at 16 minutes, and 100% at 16 minutes through 22 minutes, at which point Buffer B flow was terminated and Buffer A was reinitiated at 100% to equilibrate the column. Ten microliter volumes from individual fractions collected from the Mono-Q column were analyzed by western blot and for transacylase activity as described in Example 2. […] Samples of this purified PhnO protein were used to determine enzyme's acyl donor substrate specificity.
Enzyme reactions were prepared as follows. […] A assay premix was prepared from which 45 microliters was used in each 100 microliter reaction. This 45 microliter premix sample consisted of 40 microliters distilled and deionized water, 2 microliters of 50 mM MgCl2, and 3 microliters of 1.3 mM [^14C]-AMPA (115,392 dpm per microliter). Reactions were initiated by mixing 40 microliters of 125 mM Tris-HCl pH 8.0, […] protein sample and 10 microliters acyl-CoA acyl donor compound in a microcentrifuge tube at room temperature. Each acyl-CoA acyl donor compound was prepared as a stock solution of 1 mM, 5 mM or 10 mM stocks. Each tube was then mixed with 45 microliters of the assay premix containing the [^14C]-AMPA […] substrate, mixed gently and transferred to a 30° C. water bath for 5 minutes. […]

[2] = molecular target: PhnO enzyme (Escherichia coli, UniProt P16691, P2A)
Description: The ability of the enzyme to produce N-acetyl AMPA from a mixture containing acetyl-CoA and AMPA across a range of pH values was determined. The reactions were carried out in MES/MOPS/Tricine buffer equilibrated to a pH value from 4.5 to 9.0, with actual pH values ranging from 5.2 through 9.0. Briefly, 95 microliters of an appropriate buffer was mixed with 100 microliters of 2×assay mix as described in example 4, and 5 microliters of desalted E. coli lysate containing approximately 400 ng/microliter PhnO protein.

C/C=C/C(=O)SCCNC(=O)CCNC(=O)[C@H](O)C(C)(C)COP(=O)(O)OP(=O)(O)OC[C@H]1O[C@@H](n2cnc3c(N)ncnc32)[C@H](O)[C@@H]1OP(=O)(O)O [Crotonoyl-CoA, crotonoyl-CoA]
[^14C]-AMPA % Conversion ([1]; acyl donor 0.1 mM): 0.80% | % Activity ([1]; acyl donor 0.1 mM): 0.80% | [^14C]-AMPA % Conversion ([1]; acyl donor 0.5 mM): 0.00% | % Activity ([1]; acyl donor 0.5 mM): 0.00% | [^14C]-AMPA % Conversion ([1]; acyl donor 1 mM): 0.00% | % Activity ([1]; acyl donor 1 mM): 0.00%

CCNC(=O)CCNC(=O)[C@H](O)C(C)(C)COP(=O)(O)OP(=O)(O)OC[C@H]1O[C@@H](n2cnc3c(N)ncnc32)[C@H](O)[C@@H]1OP(=O)(O)O [Desulfo-CoA, desulfo-CoA]
[^14C]-AMPA % Conversion ([1]; acyl donor 0.1 mM): 0.95% | % Activity ([1]; acyl donor 0.1 mM): 0.95% | [^14C]-AMPA % Conversion ([1]; acyl donor 0.5 mM): 1.25% | % Activity ([1]; acyl donor 0.5 mM): 1.25% | [^14C]-AMPA % Conversion ([1]; acyl donor 1 mM): 0.52% | % Activity ([1]; acyl donor 1 mM): 0.52%

CC(C)(COP(=O)(O)OP(=O)(O)OC[C@H]1O[C@@H](n2cnc3c(N)ncnc32)[C@H](O)[C@@H]1OP(=O)(O)O)[C@@H](O)C(=O)NCCC(=O)NCCSC(=O)CCCC(=O)O [Glutaryl-CoA, glutaryl-CoA]
[^14C]-AMPA % Conversion ([1]; acyl donor 0.1 mM): 0.81% | % Activity ([1]; acyl donor 0.1 mM): 0.81% | [^14C]-AMPA % Conversion ([1]; acyl donor 0.5 mM): 0.00% | % Activity ([1]; acyl donor 0.5 mM): 0.00% | [^14C]-AMPA % Conversion ([1]; acyl donor 1 mM): 0.57% | % Activity ([1]; acyl donor 1 mM): 0.57%

CC(C)C(=O)SCCNC(=O)CCNC(=O)[C@H](O)C(C)(C)COP(=O)(O)OP(=O)(O)OC[C@H]1O[C@@H](n2cnc3c(N)ncnc32)[C@H](O)[C@@H]1OP(=O)(O)O [Isobutyryl-CoA, isobutyryl-CoA]
[^14C]-AMPA % Conversion ([1]; acyl donor 0.1 mM): 2.10% | % Activity ([1]; acyl donor 0.1 mM): 2.10% | [^14C]-AMPA % Conversion ([1]; acyl donor 0.5 mM): 0.20% | % Activity ([1]; acyl donor 0.5 mM): 0.20% | [^14C]-AMPA % Conversion ([1]; acyl donor 1 mM): 0.00% | % Activity ([1]; acyl donor 1 mM): 0.00%

CC(C(=O)O)C(=O)SCCNC(=O)CCNC(=O)[C@H](O)C(C)(C)COP(=O)(O)OP(=O)(O)OC[C@H]1O[C@@H](n2cnc3c(N)ncnc32)[C@H](O)[C@@H]1OP(=O)(O)O (stereo partly shown) [Methylmalonyl-CoA, methylmalonyl CoA]
[^14C]-AMPA % Conversion ([1]; acyl donor 0.1 mM): 1.11% | % Activity ([1]; acyl donor 0.1 mM): 1.11% | [^14C]-AMPA % Conversion ([1]; acyl donor 0.5 mM): 2.08% | % Activity ([1]; acyl donor 0.5 mM): 2.08% | [^14C]-AMPA % Conversion ([1]; acyl donor 1 mM): 2.21% | % Activity ([1]; acyl donor 1 mM): 2.21%

CCC(=O)SCCNC(=O)CCNC(=O)[C@H](O)C(C)(C)COP(=O)(O)OP(=O)(O)OC[C@H]1O[C@@H](n2cnc3c(N)ncnc32)[C@H](O)[C@@H]1OP(=O)(O)O [Propionyl-CoA, n-propionyl-CoA]
[^14C]-AMPA % Conversion ([1]; acyl donor 0.1 mM): 78.2% | % Activity ([1]; acyl donor 0.1 mM): 78.2% | [^14C]-AMPA % Conversion ([1]; acyl donor 0.5 mM): 97.8% | % Activity ([1]; acyl donor 0.5 mM): 97.8% | [^14C]-AMPA % Conversion ([1]; acyl donor 1 mM): 100.00% | % Activity ([1]; acyl donor 1 mM): 100.00%

CC(C)(COP(=O)(O)OP(=O)(O)OC[C@H]1O[C@@H](n2cnc3c(N)ncnc32)[C@H](O)[C@@H]1OP(=O)(O)O)[C@@H](O)C(=O)NCCC(=O)NCCSC(=O)CCC(=O)O [Succinyl-CoA, succinyl-CoA]
[^14C]-AMPA % Conversion ([1]; acyl donor 0.1 mM): 5.06% | % Activity ([1]; acyl donor 0.1 mM): 5.06% | [^14C]-AMPA % Conversion ([1]; acyl donor 0.5 mM): 3.38% | % Activity ([1]; acyl donor 0.5 mM): 3.38% | [^14C]-AMPA % Conversion ([1]; acyl donor 1 mM): 1.56% | % Activity ([1]; acyl donor 1 mM): 1.56%

C/C=C(\C)C(=O)SCCNC(=O)CCNC(=O)[C@H](O)C(C)(C)COP(=O)(O)OP(=O)(O)OC[C@H]1O[C@@H](n2cnc3c(N)ncnc32)[C@H](O)[C@@H]1OP(=O)(O)O [Tiglyl-CoA, tiglyl-CoA]
[^14C]-AMPA % Conversion ([1]; acyl donor 0.1 mM): 0.00% | % Activity ([1]; acyl donor 0.1 mM): 0.00% | [^14C]-AMPA % Conversion ([1]; acyl donor 0.5 mM): 0.00% | % Activity ([1]; acyl donor 0.5 mM): 0.00% | [^14C]-AMPA % Conversion ([1]; acyl donor 1 mM): 0.99% | % Activity ([1]; acyl donor 1 mM): 0.99%

CCCCC(=O)SCCNC(=O)CCNC(=O)[C@H](O)C(C)(C)COP(=O)(O)OP(=O)(O)OC[C@H]1O[C@@H](n2cnc3c(N)ncnc32)[C@H](O)[C@@H]1OP(=O)(O)O [Valeryl-CoA, n-valeryl-CoA]
[^14C]-AMPA % Conversion ([1]; acyl donor 0.1 mM): 0.24% | % Activity ([1]; acyl donor 0.1 mM): 0.24% | [^14C]-AMPA % Conversion ([1]; acyl donor 0.5 mM): 0.00% | % Activity ([1]; acyl donor 0.5 mM): 0.00% | [^14C]-AMPA % Conversion ([1]; acyl donor 1 mM): 0.33% | % Activity ([1]; acyl donor 1 mM): 0.33%

B1: PhnO: AMPA acyltransferase protein encoded by the phnO gene within the E. coli phn operon (protein)
chain: MAACELRPATQYDTDAVYALICELKQAEFDHHAFRVGFNANLRDPNMRYHLALLDGEVVGMIGLHLQFHLHHVNWIGEIQELVVMPQARGLNVGSKLLAWAEEEARQAGAEMTELSTNVKRHDAHRFYLREGYEQSHFRFTKAL
pH of optimum PhnO transacylase activity ([2]; AMPA and acetyl-CoA as substrates): ~8.0 pH | N-Acetyl CoA ([2]; Buffer pH 5.0): 222 nmol | Velocity ([2]; Buffer pH 5.0): 22.2 nmole/min/microgram | % Turnover ([2]; Buffer pH 5.0 (mock reaction pH 5.23)): 3.7% | N-Acetyl CoA ([2]; Buffer pH 5.5): 234 nmol | Velocity ([2]; Buffer pH 5.5): 23.4 nmole/min/microgram | % Turnover ([2]; Buffer pH 5.5 (mock reaction pH 5.62)): 3.9% | N-Acetyl CoA ([2]; Buffer pH 6.0): 252 nmol | Velocity ([2]; Buffer pH 6.0): 25.2 nmole/min/microgram | % Turnover ([2]; Buffer pH 6.0 (mock reaction pH 5.92)): 4.2% | N-Acetyl CoA ([2]; Buffer pH 6.5): 798 nmol | Velocity ([2]; Buffer pH 6.5): 79.8 nmole/min/microgram | % Turnover ([2]; Buffer pH 6.5 (mock reaction pH 6.47)): 13.3% | N-Acetyl CoA ([2]; Buffer pH 7.0): 1620 nmol | Velocity ([2]; Buffer pH 7.0): 162.0 nmole/min/microgram | % Turnover ([2]; Buffer pH 7.0 (mock reaction pH 7.0)): 27.0% | N-Acetyl CoA ([2]; Buffer pH 7.5): 1920 nmol | Velocity ([2]; Buffer pH 7.5): 192.0 nmole/min/microgram | % Turnover ([2]; Buffer pH 7.5 (mock reaction pH 7.48)): 32.0% | N-Acetyl CoA ([2]; Buffer pH 8.0): 2058 nmol | Velocity ([2]; Buffer pH 8.0): 205.8 nmole/min/microgram | % Turnover ([2]; Buffer pH 8.0 (mock reaction pH 8.05)): 34.3% | N-Acetyl CoA ([2]; Buffer pH 8.5): 2010 nmol | Velocity ([2]; Buffer pH 8.5): 201.0 nmole/min/microgram | % Turnover ([2]; Buffer pH 8.5 (mock reaction pH 8.46)): 33.5% | N-Acetyl CoA ([2]; Buffer pH 9.0): 2034 nmol | Velocity ([2]; Buffer pH 9.0): 203.4 nmole/min/microgram | % Turnover ([2]; Buffer pH 9.0 (mock reaction pH 9.0)): 33.9%
